Laboratory results as given in patent US20220395487A1, “RIG-I INNATE IMMUNE RECEPTOR ANTAGONISTS AND METHODS OF USING SAME” (YALE UNIVERSITY, priority 2019, published 2022).

Tests used:
RIG-I [1] = molecular target: T1, RIG-I (Homo sapiens, UniProt O95786); experiment: IFN-β/Firefly dual-luciferase reporter assay in HEK 293T cells transfected with hRIG-I; assay type: cell-based; conditions: HEK293T cells, SLR14 challenge
T1 sequence (O95786 1-925): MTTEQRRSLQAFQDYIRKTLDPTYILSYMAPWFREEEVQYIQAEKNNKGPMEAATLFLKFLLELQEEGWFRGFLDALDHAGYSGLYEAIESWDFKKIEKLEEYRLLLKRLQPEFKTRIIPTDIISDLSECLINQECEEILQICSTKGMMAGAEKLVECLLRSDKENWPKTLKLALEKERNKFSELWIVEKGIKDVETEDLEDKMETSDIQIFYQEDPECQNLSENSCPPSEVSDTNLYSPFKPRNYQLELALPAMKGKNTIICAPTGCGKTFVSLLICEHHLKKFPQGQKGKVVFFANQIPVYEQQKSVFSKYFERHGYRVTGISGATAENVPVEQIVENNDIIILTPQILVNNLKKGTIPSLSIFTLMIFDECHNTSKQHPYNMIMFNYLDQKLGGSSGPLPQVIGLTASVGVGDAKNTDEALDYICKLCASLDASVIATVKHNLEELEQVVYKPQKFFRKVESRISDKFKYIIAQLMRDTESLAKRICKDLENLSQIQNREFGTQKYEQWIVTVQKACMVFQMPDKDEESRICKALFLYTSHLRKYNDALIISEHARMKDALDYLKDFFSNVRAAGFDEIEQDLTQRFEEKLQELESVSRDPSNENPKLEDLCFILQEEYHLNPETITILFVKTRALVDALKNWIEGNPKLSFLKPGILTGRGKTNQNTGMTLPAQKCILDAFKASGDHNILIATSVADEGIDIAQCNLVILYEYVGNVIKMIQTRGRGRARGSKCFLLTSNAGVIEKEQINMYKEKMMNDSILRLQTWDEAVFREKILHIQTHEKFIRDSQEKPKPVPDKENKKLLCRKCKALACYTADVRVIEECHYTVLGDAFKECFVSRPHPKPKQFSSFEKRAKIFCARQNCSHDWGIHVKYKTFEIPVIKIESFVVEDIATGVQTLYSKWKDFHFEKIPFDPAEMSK
Method: Two different assays were used for evaluating RIG-I inhibition in cells. In the first assay, HEK 293T cells were used to test the influence of compounds on RIG-I signaling activity while simultaneously reporting on relative toxicity. In this case, inhibitor compounds were introduced via growth media replacement rather than by direct addition to cell plates. Specifically, HEK 293T cells (which express RIG-I only under the control of a transfected plasmid) were grown and maintained in T75 flasks containing Dulbecco's Modified Eagle Medium, DMEM (Life Technologies) supplemented with 10% heat-inactivated fetal bovine serum (Hyclone) and non-essential amino acids (Life Technologies). For the IFN-β induction assays, 0.5 ml of cells at 65,000 cells/ml was placed (seeded) in 24-well plates. After 24 h, each well of cells was transfected with 5 ng WT pUNO-hRIG-I (Invivogen), 6 ng pRL-TK constitutive Renilla luciferase reporter plasmid (Promega) and 150 ng of an IFN-β/Firefly luciferase reporter plasmid using the Lipofectamine 2000 transfection reagent (Life Technologies) following the manufacturer's protocol. Protein expression was allowed to proceed for 24 hours. In parallel, a six-point dilution series of each compound of interest was made in a DMSO vehicle and then diluted further into DMEM such that a constant DMSO concentration of 1% is maintained over the entire drug dilution. The DMEM growth media was aspirated from each well of cells and replaced with DMEM that contains the drug. After 30 minutes, the cells were challenged by transfection with 1 μg of the synthetic stem-loop RNA (SLR14) in Lipofectamine 2000. After 5-6 hours, cells were harvested for luminescence analysis in the following manner: Growth media was aspirated from each well, and 100 μl of passive lysis buffer (Promega) was added. Lysis proceeded for 15 min at room temperature. Lysates were clarified by centrifugation, and 20 μl samples of the supernatant were transferred to a 96-well assay plate for analysis using the Dual-Luciferase Reporter Assay System (Promega). Luminescence was measured using a Biotek Synergy H1 plate reader. The resulting Firefly luciferase activity (i.e. the induction of IFN-0) was normalized to the activity of the constitutively expressed Renilla luciferase to account for differences in confluency, transfection efficiency and cell viability across sample wells.

RIG-I [2] = molecular target: T1, RIG-I; experiment: Absorbance titration of compound with RIG-I protein; assay type: binding; set-up: The native, full-length protein was expressed and purified using methods adapted from published protocols; SUMO (pET-SUMO vector; captured on Ni-NTA) (N, cleaved yes); made in house; host or cells: Rosetta II(DE3) Escherichia coli
Method: FIG. 1A illustrates the structure of RIG-I ΔCARDs bound to a 14 base pair RNA duplex with ADP▪BeF3 (PDBID:5E3H). FIG. 1B illustrates representative IC50 curves for active compounds. Relative activity of a compound was calculated as a fraction of “no inhibitor” measurement and plotted vs. inhibitor concentration. Each data point represents a mean of n=3 determinations±the standard deviation. FIG. 1C illustrates a representative absorption titration spectra of RIG012 binding to RIG-I. Protein concentrations are indicated in figure legend. (Inset) Stoichiometry of RIG-I binding. Fraction bound (A) is plotted against fractional change in RIG-I concentration (ΔRIG-I). Slope=0.95±0.06. […]
Although IC50 values provide a valuable metric of association for enzyme inhibitors, it was of interest to determine directly whether the lead compound, RIG012, binds to the RIG-I protein. Binding studies were facilitated by the fact that RIG012 contains a strong chromophore that absorbs in the visible range (λmax of 470 nm), making it possible to conduct classical absorbance titrations of the compound with increasing amounts of RIG-I. Upon binding to RIG-I, the 470 nm absorbance band of RIG012 undergoes a dramatic hyperchromic shift to higher intensity values, and the magnitude of this shift is proportional to the relative fraction of bound small molecule (FIG. 1C). […]

IC50 (RIG-I [1]; compound in growth medium, read-out: IC50, inhibition of RIG-I signaling (IFN induction luciferase)): 1.25 µM
slope of fraction bound vs fractional change in RIG-I concentration (stoichiometry of RIG-I binding) (RIG-I [2]; absorbance titration at 470 nm, two independent experiments ± SD): 0.95±0.06
stoichiometry of compound:RIG-I complex (RIG-I [2]; absorbance titration, stoichiometric binding regime): 1:1 complex
SMILES: CCC1(CC)C(=O)N=C2C1=C(OCc1ccccc1)C(=O)c1ccccc12 [RIG012, 4-Benzyloxy-3,3-diethyl-2H,3H,5H-benzo[g]indole-2,5-dione]
inhibition of RIG-I signaling / IFN induction, result in words (RIG-I [1]): potent, dose-dependent inhibition of RIG-I signaling
